We go through two compounds from patent US20250025438A1, “Derivative of aspartic acid and use thereof in treatment of metabolic diseases such as hepatic fibrosis and non-alcoholic hepatitis” (SHENZHEN JINGTAI TECHNOLOGY CO., LTD., priority 2021, published 2025).

One test deals with NS3TP1. The test can be described thus: NS3TP1 expression in liver tissue of CCl4 liver fibrosis mice. The class given is in vivo, C57BL/6 wild-type mice. Conditions: CCl4-induced mice, different doses by gavage, vs untreated group, FIG. 5. As to the method:
Long-term intraperitoneal injection of carbon tetrachloride (CCl4) induced reversible liver fibrosis, which was often used to screen and evaluate anti-hepatic fibrosis drugs. C57BL/6 wild-type mice were randomly divided into control group, carbon tetrachloride group and treatment group. The treatments were as follows:
Mice in the carbon tetrachloride group: The animals were intraperitoneally injected with carbon tetrachloride in a total amount of 0.5 μL/g, diluted with corn oil to 10 μL/g, 3 times/week. […]

The subject of another test is NAFLD induced by CHOL. Nature of the test: Mouse NAFLD model induced by CHOL, H&E staining. The format is in vivo, C57BL/6J male mice. To be noted: CHOL diet mice, 10, 50, 150 mg/kg by gavage bid, 8 weeks, vs untreated group, FIG. 10. As to the method: (§1) • (1) C57BL/6J male mice aged 6 to 8 weeks were selected and randomly divided into normal diet group (n=10) and HFD or CHOL group; the weight changes of the mice were recorded during the modeling period, and the modeling was conducted for 8 weeks (CHOL) or 10 weeks (HFD), then the mice in the HFD or CHOL group were randomly divided into groups according to their body weights, plus the negative control group, a total of 5 groups:
(§2) (2) Mice in the negative control group (n=10): The animals were fed with normal diet, and 200 μL of drinking water was administered by gavage, bid.
(§3) Mice in HFD or CHOL group (n=10): The animals were fed with HFD or CHOL diet, and 200 μL of normal saline was administered by gavage at the same time, bid. (Note: HFD (60% high fat) feed (Whitby Technology Development (Beijing) Co., Ltd.) (D12492), CHOL (40% high fat +1.25% cholesterol) feed (Whitby Technology Development (Beijing) Co., Ltd.) (D12108C)) (3) Mice in Compound 6-low dose group (n=10): The animals were fed with HFD or CHOL diet, and administrated simultaneously with Compound 6 at a dose of 10 mg/kg by gavage, bid.
(§4) (4) Mice in Compound 6-middle dose group (n=10): The animals were fed with HFD or CHOL diet, and administrated simultaneously with Compound 6 at a dose of 50 mg/kg by gavage, bid. […]

A further test concerns NAFLD induced by HFD. The test can be described thus: Mouse NAFLD model induced by HFD, H&E staining. The class given is in vivo, C57BL/6J male mice. Conditions: HFD diet mice, 10, 50, 150 mg/kg by gavage bid, 8 weeks, vs untreated group, FIG. 9. The procedure: as §1, §2, §3, §4
For the next test, the system named is collagen I. The test can be described thus: Activated LX2 cells (TGFβ1), Western blot: Collagen I. The format is cell-based. Conditions: LX2 cells stimulated with TGFβ1 (5 ng/mL), 24 hours, FIG. 4. (In general: In western blotting, separated proteins are transferred to a membrane and probed.)
The subject of another test is FN. Nature of the test: Semi-activated LX2 cells, Western blot: FN protein. The format is cell-based. To be noted: 50-400 μM, 48 hours, FIG. 3, vs 50 μM aspartic acid.

Molecules are shown by their SMILES. Counter-ions that a name gives are not always drawn.

With `COC(=O)C[C@H](N)C(=O)O` [Compound 6], the “expression of NS3TP1 in the liver tissue of mice” value in the test on NS3TP1 is given as “gradually increased in a dose-dependent manner”. For the same compound, the “lipid droplet aggregation in the liver tissue of mice (H&E)” value in the test with NAFLD induced by CHOL and in the test with NAFLD induced by HFD was “reduced in a dose-dependent manner” throughout.

Turning to `COC(=O)C[C@H](N)C(=O)OCOC(=O)[C@@H](N)CC(=O)OC` [Compound 54, 4-dimethyl O′1,01-methylene (2S,2'S)-bis (2-aminosuccinate) hydrochloride], in the test on collagen I, the “expression of Collagen I in the cells” value is recorded as “significantly decreased”. In the test with FN, the “inhibitory effect on FN protein expression as compared to ASP” value is listed as “stronger inhibitory effects”.
